Measured values as given in patent publication US20240300991A1, “NUCLEOSIDE DERIVATIVE HAVING MULTI-TARGET KINASE INHIBITORY ACTIVITY AND PHARMACEUTICAL COMPOSITION FOR PREVENTING AND TREATING CANCER COMPRISING SAME” (FUTURE MEDICINE CO., LTD., priority 2021, published 2024).

Key:
CSNK1D = target: T1, CSNK1D (Homo sapiens, UniProt P48730); experiment: Kinase inhibition test (DNA-tagged kinase, affinity resin, qPCR readout); type: binding; design: key: (−) indicates no effect; (+) indicates weak inhibitory activity; (++) indicates a moderate level of inhibitory activity; (+++) indicates strong inhibitory activity; settings: 1 μM of compound
T1 construct: made in house
How it was run: (§1)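 Competition binding: DNA-tagged kinases (phage/E. coli or HEK-293 produced) with immobilized biotinylated ligand and test compound in DMSO, 1 h at room temperature. After washing, bound kinase eluted with 0.5 μM non-biotinylated ligand and quantified by qPCR.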

DYRK1A = target: T2, DYRK1A (Homo sapiens, UniProt Q13627); experiment: as above; type: binding; design: key: (−) indicates no effect; (+) indicates weak inhibitory activity; (++) indicates a moderate level of inhibitory activity; (+++) indicates strong inhibitory activity; settings: 1 μM of compound
T2 construct: made in house
How it was run: as §1

DYRK1B = target: T3, DYRK1B (Homo sapiens, UniProt Q9Y463); experiment: as above; type: binding; design: key: (−) indicates no effect; (+) indicates weak inhibitory activity; (++) indicates a moderate level of inhibitory activity; (+++) indicates strong inhibitory activity; settings: 1 μM of compound
T3 construct: made in house
How it was run: as §1

FLT3 = target: T4, FLT3 (Homo sapiens, UniProt P36888); experiment: as above; type: binding; design: key: (−) indicates no effect; (+) indicates weak inhibitory activity; (++) indicates a moderate level of inhibitory activity; (+++) indicates strong inhibitory activity; settings: 1 μM of compound
T4 construct: made in house
T4 sequence (P36888 27-993): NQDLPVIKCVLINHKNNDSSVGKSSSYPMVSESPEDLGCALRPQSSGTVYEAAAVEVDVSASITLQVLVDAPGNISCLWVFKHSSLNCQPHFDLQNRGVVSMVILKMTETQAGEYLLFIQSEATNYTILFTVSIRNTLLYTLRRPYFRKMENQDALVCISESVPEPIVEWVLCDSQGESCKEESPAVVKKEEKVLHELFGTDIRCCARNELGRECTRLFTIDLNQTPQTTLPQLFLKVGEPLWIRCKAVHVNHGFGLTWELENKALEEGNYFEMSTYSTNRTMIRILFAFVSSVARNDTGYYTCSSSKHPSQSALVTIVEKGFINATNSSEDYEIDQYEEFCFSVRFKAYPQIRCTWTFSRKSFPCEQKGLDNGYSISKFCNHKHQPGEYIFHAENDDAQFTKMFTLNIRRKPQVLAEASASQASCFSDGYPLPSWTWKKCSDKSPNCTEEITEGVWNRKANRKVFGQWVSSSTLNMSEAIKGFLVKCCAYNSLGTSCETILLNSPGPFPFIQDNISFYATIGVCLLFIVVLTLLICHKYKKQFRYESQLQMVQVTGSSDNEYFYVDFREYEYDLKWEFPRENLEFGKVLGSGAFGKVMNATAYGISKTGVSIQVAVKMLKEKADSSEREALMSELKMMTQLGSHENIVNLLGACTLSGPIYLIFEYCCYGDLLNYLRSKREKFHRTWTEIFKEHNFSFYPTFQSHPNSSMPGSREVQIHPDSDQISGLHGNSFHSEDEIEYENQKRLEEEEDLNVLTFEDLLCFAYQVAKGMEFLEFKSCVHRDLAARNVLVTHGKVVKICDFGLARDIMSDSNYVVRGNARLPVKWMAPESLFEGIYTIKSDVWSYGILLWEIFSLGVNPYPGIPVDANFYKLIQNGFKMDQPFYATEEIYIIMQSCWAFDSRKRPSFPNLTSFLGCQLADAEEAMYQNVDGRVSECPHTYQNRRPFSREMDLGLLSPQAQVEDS
How it was run: as §1

NTRK1 = target: T5, NTRK1 (Homo sapiens, UniProt P04629); experiment: as above; type: binding; design: key: (−) indicates no effect; (+) indicates weak inhibitory activity; (++) indicates a moderate level of inhibitory activity; (+++) indicates strong inhibitory activity; settings: 1 μM of compound
T5 construct: made in house
How it was run: as §1

A549 (lung cancer cells) = experiment: Inhibitory activity against cancer cells (sulforhodamine B staining); type: cell-based; settings: 3 days, SRB staining
How it was run: (§2)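 Cells pre-incubated 1 day (day-0 reference), then exposed to test compound 3 days. Sulforhodamine B staining (0.4% SRB, 1% acetic acid), dye dissolved in 10 mM Tris pH 10.0, absorbance at 515 nm. Cell division % relative to day 0 and control; IC50 by non-linear regression.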

[1] = test system: HCT116 (colon cancer cells); experiment: as above; type: cell-based; settings: 3 days, SRB staining
How it was run: as §2

[2] = test system: MDA-MB-231 (breast cancer cells); experiment: as above; type: cell-based; settings: 3 days, SRB staining
How it was run: as §2

[3] = test system: PC-3 (prostate cancer cells); experiment: as above; type: cell-based; settings: 3 days, SRB staining
How it was run: as §2

[4] = test system: SK-Hep-1 (liver cancer cells); experiment: as above; type: cell-based; settings: 3 days, SRB staining
How it was run: as §2

[5] = test system: SNU638 (stomach cancer cells); experiment: as above; type: cell-based; settings: 3 days, SRB staining
How it was run: as §2

T3 sequence (Q9Y463 whole entry): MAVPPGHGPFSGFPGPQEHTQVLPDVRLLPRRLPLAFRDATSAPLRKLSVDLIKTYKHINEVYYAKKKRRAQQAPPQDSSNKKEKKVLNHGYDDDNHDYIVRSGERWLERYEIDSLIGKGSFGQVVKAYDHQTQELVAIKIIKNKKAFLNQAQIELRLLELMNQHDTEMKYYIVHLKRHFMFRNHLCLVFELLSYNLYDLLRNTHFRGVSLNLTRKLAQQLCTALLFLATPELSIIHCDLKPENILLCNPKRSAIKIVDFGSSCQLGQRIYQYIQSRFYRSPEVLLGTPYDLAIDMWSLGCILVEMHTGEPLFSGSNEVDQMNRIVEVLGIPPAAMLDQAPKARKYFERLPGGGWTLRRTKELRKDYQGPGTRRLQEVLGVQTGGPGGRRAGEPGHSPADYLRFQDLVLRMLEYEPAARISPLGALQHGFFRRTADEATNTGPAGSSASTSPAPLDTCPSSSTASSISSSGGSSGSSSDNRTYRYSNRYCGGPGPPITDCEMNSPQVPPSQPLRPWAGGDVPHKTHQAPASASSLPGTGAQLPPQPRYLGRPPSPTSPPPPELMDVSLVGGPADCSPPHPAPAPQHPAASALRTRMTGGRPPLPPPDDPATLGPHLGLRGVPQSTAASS
T5 sequence (P04629 33-796): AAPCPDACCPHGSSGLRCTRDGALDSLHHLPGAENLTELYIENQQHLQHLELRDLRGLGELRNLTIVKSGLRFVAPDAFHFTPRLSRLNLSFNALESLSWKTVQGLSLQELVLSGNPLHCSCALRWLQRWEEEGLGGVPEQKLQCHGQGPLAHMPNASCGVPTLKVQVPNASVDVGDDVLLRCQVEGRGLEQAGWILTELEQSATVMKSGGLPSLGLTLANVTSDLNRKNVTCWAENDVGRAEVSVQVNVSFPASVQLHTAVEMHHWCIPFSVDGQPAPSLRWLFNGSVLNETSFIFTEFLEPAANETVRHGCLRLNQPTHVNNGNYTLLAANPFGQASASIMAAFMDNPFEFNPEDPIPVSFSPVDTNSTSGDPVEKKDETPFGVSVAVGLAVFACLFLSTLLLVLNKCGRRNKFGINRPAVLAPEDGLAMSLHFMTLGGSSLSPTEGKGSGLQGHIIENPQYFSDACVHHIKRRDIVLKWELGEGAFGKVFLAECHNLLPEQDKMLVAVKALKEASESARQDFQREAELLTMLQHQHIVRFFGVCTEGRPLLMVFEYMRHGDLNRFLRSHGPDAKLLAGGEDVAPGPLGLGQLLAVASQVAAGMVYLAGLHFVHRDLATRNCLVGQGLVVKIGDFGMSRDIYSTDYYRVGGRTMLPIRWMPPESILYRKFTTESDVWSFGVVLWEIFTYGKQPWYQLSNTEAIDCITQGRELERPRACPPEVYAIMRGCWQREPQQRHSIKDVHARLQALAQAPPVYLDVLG
T1 sequence (P48730 whole entry): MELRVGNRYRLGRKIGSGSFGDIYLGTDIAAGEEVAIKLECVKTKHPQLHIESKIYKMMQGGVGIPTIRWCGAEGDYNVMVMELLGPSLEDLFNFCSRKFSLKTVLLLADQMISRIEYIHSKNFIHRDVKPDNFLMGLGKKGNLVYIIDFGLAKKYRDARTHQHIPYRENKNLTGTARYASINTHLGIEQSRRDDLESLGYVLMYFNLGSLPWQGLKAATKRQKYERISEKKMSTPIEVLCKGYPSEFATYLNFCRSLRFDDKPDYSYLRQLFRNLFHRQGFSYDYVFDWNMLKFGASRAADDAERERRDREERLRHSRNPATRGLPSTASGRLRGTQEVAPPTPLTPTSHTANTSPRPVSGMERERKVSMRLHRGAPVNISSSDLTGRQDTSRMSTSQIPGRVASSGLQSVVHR

Compound | CSNK1D inhibitory activity (CSNK1D) | DYRK1A inhibitory activity (DYRK1A) | DYRK1B inhibitory activity (DYRK1B) | FLT3 inhibitory activity (FLT3) | NTRK1 inhibitory activity (NTRK1) | IC50 (A549 (lung cancer cells)) | IC50 [1] | IC50 [2] | IC50 [3] | IC50 [4] | IC50 [5]
C#Cc1cn([C@@H]2S[C@H](CNC(=O)c3ccccc3)[C@@H](O)[C@H]2O)c2ncnc(N)c12 [Compound 8b] | ++ | +++ | +++ | ++ | +++ | 28.6 µM | 26.3 µM | 32.4 µM | 29.1 µM | 21.2 µM | 23.3 µM
C#Cc1cn([C@@H]2S[C@H](CN)[C@@H](O)[C@H]2O)c2ncnc(N)c12 [Compound 10a] | +++ | +++ | ++ | +++ | +++ | 1.58 µM | 1.35 µM | 1.87 µM | 1.98 µM | 1.4 µM | 1.33 µM
